Data reported in PubChem BioAssay (NCI).
Where “and” joins values, the source holds several entries; their conditions need not be identical. Equal values may be shown once.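 Interpolation was linear, between the two tested concentrations surrounding the appropriate level; five concentrations were tested over 48 hours in 96-well plates. At the GI50, growth is halved. TGI: concentration producing complete growth inhibition.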 Numbered stars: 1 amine (or outer) side, 2 acyl side, 3 side chain; on linkers, the order of the positions; unused ones are H or OH. *1 amine or outer side, *2 acyl side, *3 side chain or, on linkers, in order; H or OH if unused. Bridge positions count the residues as written; N and C are the ends. Where a SMILES comes first, the peptide text is derived from it. Square brackets hold non-standard residues; d marks the D form. Peptide text beside a SMILES is read from it. I, II: the chains in the order shown. [ ]: non-standard residue; d: D form. The star is where a group is joined. Actinocin(9to1) = Cc1c2oc3c(C)ccc(C(=O)[*:1])c3nc-2c(C(=O)[*:2])c(N)c1=O; X11 = C/C=C/CC(C)C(O)[C@H](N[*:1])C(=O)[*:2]; aThr = C[C@H](O)[C@H](N)C(=O)O; NMeV = CN[C@H](C(=O)O)C(C)C; Decanoyl = CCCCCCCCCC(=O)*; Leu(ol) = CC(C)C[C@H](N)CO; Aib = CC(C)(N)C(=O)O; Sar = CNCC(=O)O

System: MDA-MB-468 breast
Assay: NCI-60 cell line screen, 48 h

| SMILES | GI50 | TGI |
| --- | --- | --- |
| Cn1c(=O)c(Oc2ccc(F)cc2F)cc2cnc(NCC(C)(C)O)nc21 | > 25000 nM | > 25000 nM |
| CN1CCN(Cc2ccc(NC(=O)c3cncc(C#Cc4cnc5ccc(N6CCOCC6)nn45)c3)cc2C(F)(F)F)CC1 | 73.5 nM | 165 nM |
| Nc1c(C(=O)Nc2cccc(C(F)(F)F)c2)sc2nc3c(cc12)CCCCCC3 | 798 nM | 3320 nM |
| COc1ncc(-c2ccc3nccc(C#CCCCCC(=O)NO)c3c2)cc1NS(=O)(=O)c1ccc(F)cc1F | 21.4 nM | 116 nM |
| COC(=O)c1c2c(c(C)[n+]([O-])c1C)C(=O)C(NCc1ccc(O)cc1)=CC2=O | 402 nM | 1740 nM |
| CC(=O)Nc1cc2c3c(cccc3c1)-c1ccccc1-2 | 37400 nM | > 100000 nM |
| Cc1cc(-c2cc(OC(=O)c3ccccc3)ccc2Cl)cc2nnc(Nc3ccc(OCCN4CCCC4)cc3)nc12 | 1320 nM | 2910 nM |
| CO/C(=C1/NC(=O)C(Cc2ccc(O)c(Br)c2)N(C)C(=O)C(C)NC(=O)CCC/C=C(\C)CCC(C)OC1=O)c1ccccc1 (configuration not stated) | 21.7 nM |  |
| CC(=O)N[C@@H](Cc1ccc(OP(=O)(O)O)cc1)C(=O)N[C@H]1CCC(=O)N2CCC[C@@H](C(=O)NC3CCc4ccccc43)N2C1=O (some centres not stated) | > 25000 nM | > 25000 nM |
| Fc1ccc(Nc2nc3nonc3nc2Nc2ccc(I)cc2)cc1 | 251 nM | 790 nM |
| COc1cc(N2CCC(N)CC2)ccc1Nc1ncc(Cl)c(-c2c[nH]c3ccccc23)n1 | 415 nM | 1740 nM |
| C#CCNC(=O)CC[C@@H](C)[C@H]1CC[C@H]2[C@@H]3CC[C@@H]4CC(=O)CC[C@]4(C)[C@H]3CC[C@]12C | 13800 nM | 45400 nM |
| CCCCCCCCCCCCCCCCCC[S+](C)CC (configuration not stated) | 527 nM | 2660 nM |
| COC(=O)Nc1nc2ccc(C(=O)c3ccc(F)cc3)cc2[nH]1 | 812 nM | > 100000 nM |
| C[C@]12CC[C@H]3[C@@H](CC[C@]4(O)C[C@@H](O[C@@H]5O[C@H](CO)[C@@H](O[C@@H]6OC[C@@H](O)[C@H](O)[C@H]6O)[C@H](O)[C@H]5O)CC[C@]34C=O)[C@@]1(O)CC[C@@H]2C1=CC(=O)OC1 | 10000 nM | 32300 nM |
| COC(=O)[C@]12CC[C@@H](C)[C@H](C)[C@@H]1C1=CC[C@@H]3[C@@](C)(CC#N)C4=C(C[C@@]3(C)[C@]1(C)CC2)OC[C@]4(C)C=O | 10700 nM | 42300 nM |
| COc1cc(C)[nH]c(=O)c1CNC(=O)c1c(C)n([C@H](C)C2CCN(CC(F)(F)F)CC2)c2ccccc12 | 24900 nM | > 100000 nM |
| Nc1ncnc2c1ccn2-c1cccc(NC(=O)c2ccc(N3CCOCC3)c(C(F)(F)F)c2)c1 | 2130 nM | 7070 nM |
| COc1cc(N(CCCl)CCCl)ccc1/C=N\NC(=O)c1cccnc1 | 1280 nM | 6830 nM |
| CC/C(=C(/c1ccc(OCCN(C)C)cc1)c1ccc(OC(=O)CCCCCCCCC(=O)c2c(C)[nH]c(/C=C3\N=C(c4ccc[nH]4)C=C3OC)c2C)cc1)c1ccccc1 | 3620 nM | > 100000 nM |
| O=C1OCC2=C1C(c1cccc(Cl)c1)c1cc3c(cc1N2CCO)CCC3 (configuration not stated) | 23.1 nM | 840 nM |
| Cc1c2oc3c(C)ccc(C(=O)N[C@@H]4C(=O)N[C@H](C(C)C)C(=O)N5CCC[C@H]5C(=O)N(C)CC(=O)N(C)[C@@H](C(C)C)C(=O)O[C@H]4C)c3nc-2c(C(=O)N[C@@H]2C(=O)N[C@H](C(C)C)C(=O)N3CCC[C@H]3C(=O)N(C)CC(=O)N(C)[C@@H](C(C)C)C(=O)O[C@H]2C)c(N)c1=O (I: [aThr][dV]P[Sar][NMeV] / II: [aThr][dV]P[Sar][NMeV]; ester I:1-I:C, II:1-II:C; linker I:N-II:N via Actinocin(9to1)) |  | 48.5 nM and 15.7 nM |
| CCN(CC)CC(O)c1cc(-c2ccc(Cl)cc2)nc2c(C)c(Cl)ccc12 (configuration not stated) | 1890 nM | 3420 nM |
| COc1cc(C(=O)NN=C2c3ccccc3-c3ccccc32)cc(OC)c1OC | 3470 nM | 41900 nM |
| CC[C@@H](C)/C=C(C)/C=C/C(=O)c1c(O)c(-c2ccc(O)cc2)cn(OC2CC(=O)CCC(C)OC(=O)CC2O)c1=O (some centres not stated) | 239 nM | 852 nM |

| SMILES | GI50 | TGI |
| --- | --- | --- |
| Cc1cc(C)c2c(c1)N(C)c1ncnc(-n3cnc4cc(C)ccc43)c1CC2C (configuration not stated) | 3240 nM | 27000 nM |
| CCc1ccc(SC2c3ccc(N(CC)CC)cc3Oc3nc(N)c(C#N)c(N)c32)cc1 (configuration not stated) | 1580 nM | 3060 nM |
| COc1cc(C2CC(c3cccc(Nc4ccnc5cc(Cl)ccc45)c3)=NN2c2ccccc2)cc(OC)c1OC (configuration not stated) | 20100 nM | > 100000 nM |
| COc1ccc(/C=C\c2cc(OC)c(OC)c(OC)c2)c(NS(=O)(=O)c2ccc(F)cc2)c1O | 69.2 nM |  |
| CCCCCCCCCCCCCCCCCCOc1ccccc1COP(=O)(O)OOCC[N+](C)(C)C | 493 nM | 1470 nM |
| CCCCOC(=O)c1c(C)[nH]c(/C=C2\N=C(c3ccc[nH]3)C=C2OC)c1C | 451 nM | 2020 nM |
| COc1c(B(O)O)cccc1-c1nc2c(F)cc3n[nH]c(C)c3c2c2c1CCCC2 | 994 nM | 4120 nM |
| CN1CCN(Cc2ccc(NC(=O)c3cncc(C#Cc4cnc5ccc(OCCCS(C)(=O)=O)nn45)c3)cc2C(F)(F)F)CC1 | 684 nM | 1680 nM |
| CC(=O)ON=C1C=CC(=C(C#N)c2ccccc2)C=C1 | 420 nM | 12500 nM |
| CC[C@@]1(O)C(=O)OCc2c1cc1n(c2=O)Cc2c-1nc1cc(F)c(C)c3c1c2[C@@H](NC(=O)CO)CC3 | < 10 nM | < 10 nM |
| NC1(C(=O)N[C@@H](CCO)c2ccc(Cl)cc2)CCN(c2ncnc3[nH]ccc23)CC1 | 128 nM and 162 nM | 1170 nM and 2210 nM |
| Nc1n[nH]c2ccc([C@@H]3Nc4ccc5cn[nH]c5c4[C@H]4C5CCC(C5)[C@@H]34)cc12 (some centres not stated) | 330 nM | 5040 nM |
| C/C=C/CC(C)C(O)[C@H](NC(=O)[C@@H]1CCCN1C(=O)C(C)(C)NC(=O)CCCCCCCCC)C(=O)NC(C)(C)C(=O)N[C@@H](CCC(N)=O)C(=O)N[C@H](CCC(N)=O)C(=O)NC(C)(C)C(=O)NC(C)(C)C(=O)N[C@@H](CCC(N)=O)C(=O)N[C@H](CC(C)C)C(=O)N[C@H](CO)CC(C)C (stereo partly drawn) (Decanoyl-[Aib]P[X11][Aib]Q[dQ][Aib][Aib]Q[dL][Leu(ol)]) | 1490 nM | 2980 nM |
| O=C(/C=C/C=C/c1ccc2c(c1)OCO2)N/N=C\c1ccc(O)cc1O | 1660 nM | 5730 nM |
| CN1CCN(CCC=C2c3ccccc3Sc3ccc(S(=O)(=O)N(C)C)cc32)CC1 | 1380 nM and 1530 nM | 2970 nM and 4260 nM |
| CN1CCN(Cc2ccc(NC(=O)c3cncc(C#Cc4cnc5ccc(N)nn45)c3)cc2C(F)(F)F)CC1 | 852 nM | 3240 nM |
| Cc1cnc(-c2ccc(-c3ccc(NC(=O)Nc4c(F)cc(F)cc4F)cc3F)c3c2C(=O)NC3)[nH]1 | 1480 nM | 3860 nM |
| O=C(Nc1cccc(-n2cc(-c3ccncc3)c(-c3ccc(Cl)c(O)c3)n2)c1)Nc1ccc(Cl)c(Cl)c1 | 729 nM | 4250 nM |
| CN(C)C1CN(C(=O)c2cc(-c3ccc4ncnc(N5CCc6cc(F)c(Cl)cc65)c4c3)cnc2N)C1 | 254 nM | 1070 nM |
| COCCn1c2c([n+](Cc3cnccn3)c1C)C(=O)c1ccccc1C2=O | < 10 nM | 14.1 nM |
| CCN1C(=O)N(CC)C2SC(N/N=C/c3cccs3)=NC21 (configuration not stated) | 253 nM | 16600 nM |
| Nc1nc(N)c2c(n1)CCC(S(=O)(=O)c1ccc3ccccc3c1)C2 (configuration not stated) | 2250 nM | 33000 nM |
| C=CC(=O)N1CCC[C@@H](n2nc(-c3ccc(Oc4ccccc4)cc3)c3c(N)ncnc32)C1 | 67.4 nM | 1240 nM |
| O=C1c2ccc3c4c(ccc(c24)C(=O)N1CCNCc1ccccc1)C(=O)N(CCNCc1ccccc1)C3=O | 1590 nM | 3100 nM |
| CN(C)CCCCNc1ccc(NCCCCN(C)C)c2c1C(=O)c1c(O)ccc(O)c1C2=O | 13700 nM | 26500 nM |
